# Results taken from US9169254B2, “Spiroimidazolone derivative” (Chugai Seiyaku Kabushiki Kaisha, priority 2009, dated 2015).
# Molecular target: T1, human PTH1 receptor (Homo sapiens, UniProt Q03431)
# T1 sequence (Q03431 27-593): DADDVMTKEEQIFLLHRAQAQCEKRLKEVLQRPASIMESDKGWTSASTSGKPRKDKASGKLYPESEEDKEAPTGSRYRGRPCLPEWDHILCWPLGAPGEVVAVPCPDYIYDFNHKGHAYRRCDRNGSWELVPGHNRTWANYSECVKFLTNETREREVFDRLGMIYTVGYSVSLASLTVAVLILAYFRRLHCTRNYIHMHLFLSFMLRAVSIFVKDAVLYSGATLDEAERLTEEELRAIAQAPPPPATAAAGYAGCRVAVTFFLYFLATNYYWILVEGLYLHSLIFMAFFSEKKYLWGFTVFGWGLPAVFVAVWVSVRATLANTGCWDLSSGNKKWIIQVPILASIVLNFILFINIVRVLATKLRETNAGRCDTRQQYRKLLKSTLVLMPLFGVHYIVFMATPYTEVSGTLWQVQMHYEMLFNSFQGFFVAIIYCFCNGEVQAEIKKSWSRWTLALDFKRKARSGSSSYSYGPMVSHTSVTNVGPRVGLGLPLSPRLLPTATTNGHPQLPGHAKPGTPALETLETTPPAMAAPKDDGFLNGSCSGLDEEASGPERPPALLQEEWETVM
# Experiment: In vitro cAMP signal activity in HKRK-B7 cells (LLC-PK1 cells overexpressing the human PTH1 receptor)
# Type: cell-based
# Conditions: HKRK-B7 cells; compound at 1×10^−3 M; cAMP produced as percentage of that produced by hPTH(1-34) at 100 nM
row,cAMP production activity (%),SMILES
1,20%,"Cc1cc(N(C)C(=O)CN(C)C)cc(C)c1/C=C/S(=O)(=O)N1CCC2(CC1)N=C(c1cccc(OC(F)(F)F)c1)NC2=O [Compound 608, 2-dimethylamino-N-(3,5-dimethyl-4-{(E)-2-[4-oxo-2-(3-trifluoromethoxy-phenyl)-1,3,8-triaza-spiro[4.5]dec-1-ene-8-sulfonyl]-vinyl}-phenyl)-N-methyl-acetamide]"
2,36%,"Cc1cc(C(=O)N2CCN(C(=O)N(C)C)CC2)ccc1CCS(=O)(=O)N1CCC2(CC1)N=C(c1cccc(C(F)(F)F)c1)NC2=O [Compound 382, 4-(3-methyl-4-{2-[4-oxo-2-(3-trifluoromethyl-phenyl)-1,3,8-triaza-spiro[4.5]dec-1-ene-8-sulfonyl]-ethyl}-benzoyl)-piperazine-1-carboxylic acid dimethylamide]"
3,71%,"Cc1cc(NCC(N)=O)ccc1CCS(=O)(=O)N1CCC2(CC1)N=C(c1cccc(OC(F)(F)F)c1)NC2=O [Compound 847, 2-(3-methyl-4-{2-[4-oxo-2-(3-trifluoromethoxy-phenyl)-1,3,8-triaza-spiro[4.5]dec-1-ene-8-sulfonyl]-ethyl}-phenylamino)-acetamide]"
4,104%,"Cc1cc(N(C)C(N)=O)cc(C)c1CCS(=O)(=O)N1CCC2(CC1)N=C(c1ccc3c(c1)OC(F)(F)O3)NC2=O [Compound 1029, 1-(4-{2-[2-(2,2-difluoro-benzo[1,3]dioxol-5-yl)-4-oxo-1,3,8-triaza-spiro[4.5]dec-1-ene-8-sulfonyl]-ethyl}-3,5-dimethyl-phenyl)-1-methyl-urea]"
5,94%,"Cc1cc(C(=O)N2CCN(C(=O)CCCN(C)C)CC2)cc(C)c1/C=C/S(=O)(=O)N1CCC2(CC1)N=C(c1cccc(OC(F)(F)F)c1)NC2=O [Compound 449, 8-((E)-2-{4-[4-(4-dimethylamino-butyryl)-piperazine-1-carbonyl]-2,6-dimethyl-phenyl}-ethenesulfonyl)-2-(3-trifluoromethoxy-phenyl)-1,3,8-triaza-spiro[4.5]dec-1-en-4-one]"
6,74%,"CC(=O)Nc1ccc(CCS(=O)(=O)N2CCC3(CC2)N=C(C2CCC(C(C)(C)F)CC2)NC3=O)c(C)c1 (stereo not shown) [Compound 1078, N-[4-(2-{2-[4-(1-Fluoro-1-methyl-ethyl)-cyclohexyl]-4-oxo-1,3,8-triaza-spiro[4.5]dec-1-ene-8-sulfonyl}-ethyl)-3-methyl-phenyl]-acetamide]"
7,31%,"O=C(Cc1c[nH]c2cccc(CCS(=O)(=O)N3CCC4(CC3)N=C(C3CCCCC3)NC4=O)c12)NCc1ccccc1 [Compound 420, N-Benzyl-2-{4-[2-(2-cyclohexyl-4-oxo-1,3,8-triaza-spiro[4.5]dec-1-ene-8-sulfonyl)-ethyl]-1H-indol-3-yl}-acetamide]"
8,14%,"Cc1cc(CN2C(=O)CCC2=O)cc(C)c1CCS(=O)(=O)N1CCC2(CC1)N=C(C1CCC(C)CC1)NC2=O (stereo not shown) [Compound 782, 1-(3,5-dimethyl-4-{2-[2-(4-methyl-cyclohexyl)-4-oxo-1,3,8-triaza-spiro[4.5]dec-1-ene-8-sulfonyl]-ethyl}-benzyl)-pyrrolidine-2,5-dione]"
9,13%,"O=C1NC(Cc2ccccc2)=NC12CCN(S(=O)(=O)c1cccc(Cl)c1)CC2 [Compound 7, 2-benzyl-8-(3-chloro-benzenesulfonyl)-1,3,8-triaza-spiro[4.5]dec-1-en-4-one]"
10,70%,"Cc1cc(OC[C@H](O)CO)cc(C)c1/C=C/S(=O)(=O)N1CCC2(CC1)N=C(C1CCCCC1)NC2=O [Compound 206, 2-cyclohexyl-8-{(E)-2-[4-((R)-2,3-dihydroxy-propoxy)-2,6-dimethyl-phenyl]-ethenesulfonyl}-1,3,8-triaza-spiro[4.5]dec-1-en-4-one]"
11,77%,"CC(=O)NCCNS(=O)(=O)c1ccc(CCS(=O)(=O)N2CCC3(CC2)N=C(C2CCCCC2)NC3=O)c(C)c1 [Compound 664, N-(2-{4-[2-(2-cyclohexyl-4-oxo-1,3,8-triaza-spiro[4.5]dec-1-ene-8-sulfonyl)-ethyl]-3-methyl-benzenesulfonylamino}-ethyl)-acetamide]"
12,60%,"Cc1cc(N(C)C(=O)C(F)(F)F)cc(C)c1CCS(=O)(=O)N1CCC2(CC1)N=C(C1CC(C)(C)CC(C)(C)C1)NC2=O [Compound 933, N-(3,5-dimethyl-4-{2-[4-oxo-2-(3,3,5,5-tetramethyl-cyclohexyl)-1,3,8-triaza-spiro[4.5]dec-1-ene-8-sulfonyl]-ethyl}-phenyl)-2,2,2-trifluoro-N-methyl-acetamide]"
13,96%,"Cc1cc(N(C)C(=O)CO)ccc1/C=C/S(=O)(=O)N1CCC2(CC1)N=C(c1cccc(OC(F)(F)F)c1)NC2=O [Compound 451, 2-Hydroxy-N-methyl-N-(3-methyl-4-{(E)-2-[4-oxo-2-(3-trifluoromethoxy-phenyl)-1,3,8-triaza-spiro[4.5]dec-1-ene-8-sulfonyl]-vinyl}-phenyl)-acetamide]"
14,133%,"CCCCCCCCCC1=NC2(CCN(S(=O)(=O)CCc3c(C)cc(C(=O)N4CCC(O)CC4)cc3C)CC2)C(=O)N1 [Compound 984, 8-{2-[4-(4-hydroxy-piperidine-1-carbonyl)-2,6-dimethyl-phenyl]-ethanesulfonyl}-2-nonyl-1,3,8-triaza-spiro[4.5]dec-1-en-4-one]"
15,105%,"Cc1cc(C(=O)N(C)C)ccc1CCS(=O)(=O)N1CCC2(CC1)N=C(c1cccc(F)c1C)NC2=O [Compound 114, 4-{2-[2-(3-fluoro-2-methyl-phenyl)-4-oxo-1,3,8-triaza-spiro[4.5]dec-1-ene-8-sulfonyl]-ethyl}-3,N,N-trimethyl-benzamide]"
16,17%,"Cc1cc(N(C)C(=O)CN)cc(C)c1/C=C/S(=O)(=O)N1CCC2(CC1)N=C(c1cccc(OC(F)(F)F)c1)NC2=O [Compound 1011, 2-Amino-N-(3,5-dimethyl-4-{(E)-2-[4-oxo-2-(3-trifluoromethoxy-phenyl)-1,3,8-triaza-spiro[4.5]dec-1-ene-8-sulfonyl]-vinyl}-phenyl)-N-methyl-acetamide]"
17,42%,"CC(C)(C)CC(=O)N1CCCC(C2=NC3(CCN(S(=O)(=O)c4cccc(Cl)c4)CC3)C(=O)N2)C1 (stereo not shown) [Compound 423, 8-(3-Chloro-benzenesulfonyl)-2-[1-(3,3-dimethyl-butyryl)-piperidin-3-yl]-1,3,8-triaza-spiro[4.5]dec-1-en-4-one]"
18,94%,"Cc1cc(C(=O)N(C)C)ccc1CCS(=O)(=O)N1CCC2(CC1)N=C(c1ccc(OC(F)(F)F)cc1)NC2=O [Compound 106, 3,N,N-trimethyl-4-{2-[4-oxo-2-(4-trifluoromethoxy-phenyl)-1,3,8-triaza-spiro[4.5]dec-1-ene-8-sulfonyl]-ethyl}-benzamide]"
19,73%,"Cc1cc(C(=O)N(C)C)ccc1CCS(=O)(=O)N1CCC2(CC1)N=C(C(C)(C)Oc1ccc(Cl)cc1Cl)NC2=O [Compound 175, 4-(2-{2-[1-(2,4-Dichloro-phenoxy)-1-methyl-ethyl]-4-oxo-1,3,8-triaza-spiro[4.5]dec-1-ene-8-sulfonyl}-ethyl)-3,N,N-trimethyl-benzamide]"
20,29%,Cc1cc2ccc1CCS(=O)(=O)N1CCC3(CC1)N=C(NC3=O)c1cc(cc(C(F)(F)F)c1)OCC/C=C/CO[C@H]1CN(C[C@@H]1O)C2=O [Compound 1424]
21,123%,"Cc1cc(N(C)C(N)=O)cc(C)c1C1CC1S(=O)(=O)N1CCC2(CC1)N=C(C1CCC(C)CC1)NC2=O (stereo not shown) [Compound 740, 1-(3,5-Dimethyl-4-{2-[2-(4-methyl-cyclohexyl)-4-oxo-1,3,8-triaza-spiro[4.5]dec-1-ene-8-sulfonyl]-cyclopropyl}-phenyl)-1-methyl-urea]"
22,99%,"CCC[C@@H]1CCC[C@H](C2=NC3(CCN(S(=O)(=O)/C=C/c4c(C)cc(N(C)C(N)=O)cc4C)CC3)C(=O)N2)C1 [Compound 1108, 1-(3,5-Dimethyl-4-{(E)-2-[4-oxo-2-((1S,3R)-3-propyl-cyclohexyl)-1,3,8-triaza-spiro[4.5]dec-1-ene-8-sulfonyl]-vinyl}-phenyl)-1-methyl-urea]"
23,65%,"CCCCC1CCC(C2=NC3(CCN(S(=O)(=O)/C=C/c4c(C)cc(N5C(=O)CNC5=O)cc4C)CC3)C(=O)N2)CC1 (stereo not shown) [Compound 631, 3-(4-{(E)-2-[2-(4-Butyl-cyclohexyl)-4-oxo-1,3,8-triaza-spiro[4.5]dec-1-ene-8-sulfonyl]-vinyl}-3,5-dimethyl-phenyl)-imidazolidine-2,4-dione]"
24,62%,"O=C1NC(C2CCCCC2)=NC12CCN(S(=O)(=O)CCCc1cccc(O)c1)CC2 [Compound 317, 2-cyclohexyl-8-[3-(3-hydroxy-phenyl)-propane-1-sulfonyl]-1,3,8-triaza-spiro[4.5]dec-1-en-4-one]"
25,57%,"Cc1cc(N2CCC(=O)NC2=O)cc(C)c1CCS(=O)(=O)N1CCC2(CC1)N=C(C1CCC(C)CC1)NC2=O (stereo not shown) [Compound 786, 1-(3,5-dimethyl-4-{2-[2-(4-methyl-cyclohexyl)-4-oxo-1,3,8-triaza-spiro[4.5]dec-1-ene-8-sulfonyl]-ethyl}-phenyl)-dihydro-pyrimidine-2,4-dione]"
